The source of these data is article PMC4823704, “Trastuzumab-grafted PAMAM dendrimers for the selective delivery of anticancer drugs to HER2-positive breast cancer” (Scientific Reports, 2016).

In general, viability refers to a read-out of living cells in per cent, often relative to untreated cells. As a reminder, the IC50 is the concentration at which inhibition is half-maximal. Low values mean greater potency, high ones weaker potency. Broadly, the cell viability is a per cent measure of how many cells are alive, often set against a control. Read a low cell viability as a greater loss of cells.

Each structure is given as a SMILES string.

The conditions of data set [1]: patients, p = 0.03; cited from earlier work.
Data set [2] deals with MDA-MB-453 cells (HER2-positive). Briefly: Anti-proliferation assay (MTT). Format: cell-based. Particulars: Homo sapiens. The method, then: (§1) Cells were grown in DMEM medium supplemented with 10% fetal bovine serum, 100 U/mL penicillin, […] streptomycin and 2 mM/L L-glutamine. Cells were maintained at 37 °C in 5% CO2.
(§2) Cells were seeded in 96-well plates at a density of 5 × 10^3 cells per well in 100 μL of medium. […] Media were then replaced with serum-free DMEM containing MTT (0.5 mg/mL), then cells were incubated for 4 h. Media were removed and 150 μL of DMSO was added to dissolve formazan crystals. Absorbance was measured at 570 nm using a microplate reader. Untreated cells were used as a negative control (100% viability). IC50 was calculated by fitting the curve of cell viability against the drug concentration.

Data set [3] deals with MDA-MB-231 cells (HER2-negative). The data set can be described thus: Anti-proliferation assay (MTT). Format: cell-based, human. The procedure: as §1, §2
Another data set concerns MDA-MB-453 cells. The data set can be described thus: Annexin V-FITC/PI apoptosis assay. Particulars: 56 ng/mL, 24 h. Format: cell-based, human. The method, then: To evaluate apoptosis and necrosis, we used Annexin V-FITC/PI assays, as per the manufacturer’s protocols. Briefly, MDA-MB-453 cells (1 × 10^6 cells/well) were seeded in six-well plates and maintained at 37 °C in 5% CO2 and a 95% humidified atmosphere. The medium was replaced with freshly prepared medium containing drug-loaded formulations. Untreated cells were used as controls. After 24 h, cells were washed twice with PBS and resuspended in 500 μL of binding buffer. We added 5 μL of FITC-conjugated Annexin V and 10 μL of PI, and incubated cells for 15 min at room temperature in the dark. Cells were then analyzed by a Muse™ Cell Analyzer (Merck-Millipore, Germany) and the extent of apoptosis and necrosis was determined.

For `CC(=O)O[C@@]12CO[C@@H]1C[C@H](O)[C@@]1(C)C(=O)[C@H](O)C3=C(C)[C@@H](OC(=O)[C@H](O)[C@@H](NC(=O)OC(C)(C)C)c4ccccc4)C[C@@](O)([C@@H](OC(=O)c4ccccc4)[C@H]21)C3(C)C` [DTX, docetaxel], in data set [1], the survival is recorded as 22.7 months. The viability at 0.125 µg/mL in data set [2] (125 ng/mL drug concentration, 48 h, MDA-MB-453, read-out: cell viability) worked out at 69%. In addition, the IC50 in data set [2] (MDA-MB-453, 48 h of incubation) is more than 0.25 µg/mL. Also, the cell viability in data set [3] (48 h, MDA-MB-231) is given as 61.9%. In data set [3] (Homo sapiens, MDA-MB-231, 48 h of incubation), this compound showed an IC50 of more than 0.25 µg/mL. In the data set on MDA-MB-453 cells, the live cells turned out to be 83.1% and the “total percentage of apoptotic cells” value came out at 16.5%.
